# Experimental data as given in PubChem BioAssay AID1996.
# Details: buffer; pH 7.4; 200.0 µM
row,SMILES,solubility kinetic [µg/mL]
1,O=C(Nc1ccc(F)cc1)Nc1sccc1-c1nc2ccccc2s1,1.1
2,O=C(Nc1ccc2ncccc2c1)c1cccc(Br)c1,2.5
3,COc1cccc(NC(=O)Nc2ccc3nc(C)c(C)nc3c2)c1,0.9
4,CCCC1NC(=S)NC(C)=C1C(C)=O (stereo unspecified),> 31.8
5,COc1ccc(CCC(=O)NCCOc2ccccc2Cl)cc1,> 50.1
6,CC1(C)CSC(=NCCc2ccccc2)N1,> 35.2
7,O=C(N/N=C/c1cccs1)c1cccnc1,> 34.7
8,O=C(Nc1ccc(Cl)cc1)Nc1ccccn1,0.6
9,COc1ccc2c(c1OC)C(=O)N(c1ccc(C)cc1)C2,3.2
10,COc1cc(OC)c(C(=O)NCc2cccnc2)cc1OC,42.9
11,NC(=O)COC(=O)CSc1ccc2ccccc2c1,> 41.3
12,Cn1c(=O)[nH]c2nc[nH]c2c1=O,> 24.9
13,COCc1c(CCl)cnc(C)c1O,> 30.2
14,CC(=O)c1cn(C)c(=O)c2ccccc12,> 30.2
15,Cc1cc(S(=O)(=O)NCC2CC2)c(Cl)cc1Cl,> 44.1
16,COc1ccc2c(c1)CC/C(=C/c1ccccn1)C2=O,38.5
17,CCCN1CCC(NC(=O)C2CCN(C(C)=O)CC2)CC1,> 44.3
18,O=C(CCS(=O)(=O)c1ccccc1Cl)NC1CCCCCC1,> 51.6
19,C/C(CC(=O)NC(C)c1ccccc1)=N\NC(N)=S (stereo unspecified),> 41.8
20,CC12CN3CC(C)(CN(C1)C3c1ccc(Cl)cc1)C2 (stereo unspecified),30.9
21,Cc1cc(C)cc(NS(=O)(=O)c2c(C)[nH]c(=O)[nH]c2=O)c1,> 46.4
22,O=C(O)c1ccc(/C=N/N2CCN(c3ccccc3)CC2)cc1,> 46.4
23,COCCn1c(-c2cccs2)nc2nc3ccccc3nc21,39.7
24,Cc1ccccc1OCCNCC(C)O.O=C(O)C(=O)O (stereo unspecified),27
25,Br.Fc1cccc(CNCC2CCCO2)c1 (stereo unspecified),42.2

row,SMILES,solubility kinetic [µg/mL]
1,COc1cc(CN2CCN(CC3CC3)CC2CCO)cc(OC)c1 (stereo unspecified),42.6
2,COc1ccc(CC(=O)Oc2ccccc2[N+](=O)[O-])cc1,14.2
3,COc1ccc(N2CCN(C(=O)[C@H](C)N3C(=O)C4CC=CCC4C3=O)CC2)cc1 (stereo partly specified),> 59.6
4,O=C(CNC(=O)c1ccco1)Nc1ccc2c(c1)OCCO2,> 45.3
5,CCOC(=O)c1sc(=NC(=O)c2ccc(C)cc2)n(C)c1C,< 0.3
6,CC(=O)c1sc(NCc2ccccc2)nc1C,31.8
7,COc1ccc(C(=O)Nc2nc3ccccc3[nH]2)cc1,4.1
8,Cc1cccc(NC(=O)c2cccc(C(=O)Nc3cccc(C)n3)c2)n1,0.9
9,O=C(Nc1ccc(Br)cc1)c1ccccc1Br,7.3
10,COc1ccccc1NC(=O)c1ccc2[nH]c(C)c(C)c2c1,2.1
11,Cc1nc(-c2ccc(NC(=O)C(C)(C)C)cc2)c(-c2ccccc2)o1,0.8
12,CNC(=S)N1CCn2cccc2C1c1cc(OC)c(OC)c(OC)c1 (stereo unspecified),> 54.2
13,CCOC(=O)c1c(-c2ccc(C)cc2)csc1/N=C/N(C)C,> 47.5
14,CCSc1nnc(NC(=O)c2c(C)noc2C)s1,> 42.7
15,CCN(c1ccccc1)S(=O)(=O)c1ccc(Oc2ccccc2C(C)=O)nc1,18.6
16,ClCC1=Nc2ccccc2Cc2ccccc21,4.8
17,O=C(O)CC1(CC(=O)Nc2ccc(C(F)(F)F)cc2)CCCC1,> 49.4
18,O=C(O)C1C2CCC(O2)C1C(=O)Nc1ccc(Br)cc1F (stereo unspecified),> 53.7
19,COc1cc(NC(=O)c2ccc(S(=O)(=O)N(C)c3ccccc3OC)cc2)cc(OC)c1,4.5
20,O=C(/C=C/c1ccco1)Nc1ccc2nc3n(c(=O)c2c1)CCCC3,3.7
21,O=C(Nc1ccccc1N1CCCC1)c1ccccc1F,19.8
22,CCN(CC)c1ccc(NC(=S)NC(=O)c2cccs2)cc1,< 0.2
23,O=C(O)C1C2C=CC(C2)C1C(=O)NCCCN1CCCC1=O (stereo unspecified),44.2
24,O=C(CCS(=O)(=O)c1ccccc1)Nc1nncs1,> 44.6
25,CN(C)C(=O)NC1c2ccccc2-c2ccccc21,> 37.8

row,SMILES,solubility kinetic [µg/mL]
1,COc1ccc(OCC(=O)Nc2ccc3c(c2)n(C)c(=O)n3C)cc1,48.2
2,COC(=O)C1(C(C[N+](=O)[O-])c2ccc(C)cc2)C(=O)NCC1c1ccco1 (stereo unspecified),> 55.9
3,Cc1nc2cc(NC(=O)NCCCO)ccc2o1,> 37.4
4,CN(C)CCNC(=O)Cc1ncc(C(F)(F)F)cc1Cl,> 46.5
5,COc1cc(/C=C/C(=O)O)cc(S(=O)(=O)NCC2CCCO2)c1OC (stereo unspecified),53.3
6,Cl.N=C(N)SCP(=O)(c1ccccc1)c1ccccc1,> 49
7,O=C(Nc1nc2cc3c(cc2s1)OCO3)C1CC1,< 0.3
8,Cc1ccc(Cl)cc1NC(=O)C1COc2ccccc2O1 (stereo unspecified),< 0.7
9,COCCn1c(SCC(=O)NC(=O)NC2CCCCC2)nc2ccccc2c1=O,4.6
10,CC1Cc2ccccc2N1C(=O)CSc1ncccn1 (stereo unspecified),> 42.8
11,Cl.O=C(NC1CCCCC1)N1CCNCC1,> 37.2
12,COc1ccc(NS(=O)(=O)c2ccc(O)c([N+](=O)[O-])c2)cc1S(=O)(=O)N1CCCCC1,> 70.7
13,COc1ccc(S(=O)(=O)N2CCCC2)c2ccccc12,0.9
14,CC(C)c1ccccc1NC(=O)C1C2C=CC(C2)C1C(=O)O (stereo unspecified),42.1
15,CCN(CC)S(=O)(=O)c1ccc(C(=O)O)cc1,30.4
16,C=CCn1c(P(C)(=O)[O-])nc2ccccc21.[K+],> 41.1
17,NC(=O)C1CCN(C(=O)Cc2ccc(-c3ccccc3)cc2)CC1,> 48.4
18,Cn1cccc1/C=C1\SC(=Nc2cccc(O)c2)NC1=O,5.6
19,O=C(c1ccc2nc[nH]c2c1)N1CCN(c2cccc(Cl)c2)CC1,42.7
20,CC(C)NC(=O)COc1ccccc1C#N,> 32.7
21,COc1ccccc1CC(=O)N1CCOCC1,34.6
22,Cc1onc(-c2ccccc2)c1C(=O)N(C)CCc1ccccn1,> 48.2
23,COc1cc(CO)ccc1OCc1ccc(Cl)nc1,> 42
24,O=C1c2cccc3cccc(c23)C(=O)N1c1ccc(O)cc1,< 0.6
25,O=C(Nc1nc2ccccc2s1)c1ccc([N+](=O)[O-])o1,< 0.2

row,SMILES,solubility kinetic [µg/mL]
1,O=c1[nH]c(O)c(C=Nc2cc(F)cc(F)c2)c(=O)[nH]1,2.8
2,O=C(Nc1ccc(Nc2ccccc2)cc1)c1c(Cl)cccc1Cl,1.2
3,Br.C=CCN1CCc2cccc3c2[C@H]1Cc1ccc(O)c(O)c1-3,27.9
4,CCc1ccc(CN(C)C(=O)c2cc(=O)c3ccccc3o2)cc1,35
5,Cc1nn(CC(=O)N(C)C2(C#N)CCCCC2)c(C)c1[N+](=O)[O-],> 47.9
6,Cc1ccc(CN2CCCC(C(=O)c3ccc4c(c3)OCO4)C2)cc1C (stereo unspecified),25.4
7,Cc1ccc(C)c2sc(N)nc12,> 26.7
8,O=C(N/C(=C\c1ccc(Cl)cc1)C(=O)N1CCCCC1)c1ccco1,> 53.8
9,COc1ccccc1/C=C(\NC(=O)c1ccccc1)C(=O)NCc1ccco1,7
10,CCN(Cc1ccncc1)C(=O)CSc1ccc2ccccc2c1,32.6
11,O=C(CCC(=O)N1CCN(c2ccccn2)CC1)c1cccs1,> 49.4
12,C[C@H](NC(=O)N1CCn2c1nc1ccccc12)C(=O)NC1CC1,> 47
13,COc1ccc(-n2c(C)cc(-c3cn4cccc(C)c4n3)c2C)cc1,11.9
14,Cc1cc(C(=O)Nc2ccncc2)c(C)o1,> 32.4
15,Cc1c(C=O)c2ccccc2n1CCOc1ccccc1F,< 0.6
16,O=C(CN1CCOCC1)NNC(=S)Nc1ccc(Cl)cc1,> 49.3
17,O=C1Nc2cc(C(F)(F)F)ccc2N2CCCCC12 (stereo unspecified),7.1
18,Cc1ccc(-c2ccnc3cc(C)nn23)cc1,> 33.5
19,CCc1c(C)nc2c(OC)cccc2c1Cl,7.7
20,O=C1C2CCCN2C(=O)N1CCCN1CCN(c2ccc([N+](=O)[O-])cc2)CC1 (stereo unspecified),49.4
21,Cc1sc2nc(SCCO)n(-c3ccccc3)c(=O)c2c1C,1.4
22,O=C(c1cc(-c2ccccc2)nc2ccccc12)N1CCCC1,42
23,N#CCSc1ccccc1NC(=O)CN1C(=O)C(=O)N(Cc2ccccc2)C1=O,43.3
24,COc1cccc(/C=C/C(=O)OCC(=O)NCc2ccc3c(c2)OCO3)c1,3.3
25,O=C(Nc1cccnc1Cl)c1cc(-c2cccc(O)c2)on1,0.3

row,SMILES,solubility kinetic [µg/mL]
1,CC(C)=CC(=O)OCc1csc(CC(=O)Nc2ccccc2C)n1,> 51.7
2,Cc1ccc(-c2nc(-c3ccncc3)no2)c(C)c1,0.5
3,O=C(O)C(NS(=O)(=O)c1cccc2nsnc12)c1ccccc1 (stereo unspecified),48.4
4,COc1ccc(-n2c(N)cc(=O)[nH]c2=O)cc1,> 35
5,CC1=C(C(=O)OC(C)C)C(c2ccc(O)cc2)NC(=O)N1 (stereo unspecified),> 43.5
6,Brc1cccc(CN2CCCCCC2)c1,15.2
7,CN(C)C=Nc1ccc2nc3c(cc2c1)[nH]c1ccccc13,> 43.3
8,COc1cccc(NC(=O)CN2C(=O)NC3(CCCCCC3)C2=O)c1,> 51.8
9,COC(=O)c1ccc(C(=O)Nc2nc3cc(N)c(C)cc3s2)cc1,< 0.2
10,Cc1ccc(NC(=O)CNCc2ccccc2)c(Br)c1,34.3
11,Cn1c(=O)c(C(=O)NCCCc2ccccc2)c(O)c2ccccc21,< 0.4
12,O=S(=O)(NC1CCCCCCC1)c1ccc(F)cc1,> 42.8
13,CSc1nc2ccc(NC(=O)c3cccs3)cc2s1,2.7
14,CC(C)CCc1c(O)nc(SCC(C)C)[nH]c1=O,> 40.6
15,Cn1c(C(=O)Nc2ccc(Cl)cc2)cc2cc(Cl)ccc21,< 0.3
16,CCN(CC(=O)Nc1cccc(OC)c1)C(=O)c1ccncc1,37.2
17,CC1CCCCC1NC(=O)C1CC(=O)N(Cc2ccccc2)C1 (stereo unspecified),> 47.2
18,Cc1cccc(NS(=O)(=O)c2ccc3c(c2)NC(=O)CC(=O)N3)c1,> 51.8
19,CC(=O)Nc1cccc(NC=C(C#N)C#N)c1,11.7
20,O=[N+]([O-])c1ccc(NCCCN2CCOCC2)c2ncccc12,2.5
21,CC1(C)C2([N+](=O)[O-])CN3CC1([N+](=O)[O-])CN(C2)C3c1ccc(O)c(O)c1 (stereo unspecified),3.5
